Assay results taken from patent US10206886B2, “Lipid nanoparticles for wound healing” (Praxis Biopharma Research Institute, priority 2013, dated 2019).

Test system: HUVEC cells (Human Umbilical Vein Endothelial Cells)
Experiment: Proliferation assay with LL37-loaded nanoparticles (CCK-8)
Format: cell-based
Settings: 0.5 and 0.1 μg/ml LL37, after 48 hours, FIG. 6

free LL37: Cathelicidin antimicrobial peptide LL37, SEQ ID NO 1 (LLGDFFRKSKEKIGKEFKRIVQRIKDFLRNLVPRTES), non-encapsulated
cell proliferation compared with control groups: greater cell proliferation
